Data taken from ChEMBL document CHEMBL1134884, “Novel indolo[2,1-b]quinazoline analogues as cytostatic agents: synthesis, biological evaluation and structure-activity relationship” (Bioorg Med Chem Lett, 2002).

Tests used:
[1] = system: NCI/ADR-RES; test: Tested for in vitro cytotoxic activity against breast MCF-7/ADR human cancer cell lines; assay type: functional
[2] = system: M14; test: Tested for in vitro cytotoxic activity against melanoma M14 human cancer cell lines; assay type: functional
[3] = system: NCI-H522; test: Tested for in vitro cytotoxic activity against lung H522 human cancer cell lines; assay type: functional
[4] = system: DU-145; test: Tested for in vitro cytotoxic activity against prostate DU145 human cancer cell lines; assay type: functional
[5] = system: A498; test: Tested for in vitro cytotoxic activity against renal A498 human cancer cell lines; assay type: functional
[6] = system: SK-OV-3; test: Tested for in vitro cytotoxic activity against ovarian SKOV3 human cancer cell lines; assay type: functional
[7] = system: SW-620; test: Tested for in vitro cytotoxic activity against colon SW620 human cancer cell lines; assay type: functional
[8] = system: U-251; test: Tested for in vitro cytotoxic activity against CNS U251 human cancer cell lines; assay type: functional
[9] = Bioavailability (dose 20 mg/kg); assay type: ADME, organism-based; details: eutheria, in vivo
[10] = system: Mus musculus; test: Maximum mean weight loss on 24th day after administration of 40 mg/kg daily for 10 days(total 400 mg/kg).; assay type: functional
[11] = species on record: Mus musculus; test: Antitumor activity after 24 days was determined.; assay type: functional
[12] = species on record: Mus musculus; test: Antitumor activity after 17 days was determined.; assay type: functional
[13] = system: Mus musculus; test: Maximum mean weight loss on 26th day after administration of 40 mg/kg daily for 10 days(total 400 mg/kg).; assay type: functional

SMILES | GI50 [1] [µM] | GI50 [2] [µM] | GI50 [3] [µM] | GI50 [4] [µM] | GI50 [5] [µM] | GI50 [6] [µM] | GI50 [7] [µM] | GI50 [8] [µM] | bioavailability [9] [%] | Max mean weight loss [10] [%] | Optimum T/C [11] [%] | Optimum T/C [12] [%] | Max mean weight loss [13] [%]
COC(=O)CO/N=C1\c2ccccc2-n2c1nc1ccccc1c2=O | 0.01 | 40 | 80 | 30 | > 100 | 50 | > 100 | > 100 |  |  |  |  | 
O=C1c2cc3c(cc2-n2c1nc1ccccc1c2=O)OCO3 | > 100 | > 100 | > 100 | > 100 | > 100 | > 100 | > 100 | > 100 |  |  |  |  | 
O=C1c2ccccc2-n2c1nc1ccc(Br)cc1c2=O | > 100 | > 100 | > 100 | > 100 | > 100 | > 100 | > 100 | > 100 |  |  |  |  | 
O=c1c2ccccc2nc2n1-c1ccccc1/C2=N\OCCN1CCCC1 | 6 | 2 | 3 | 3 | 5 | 3 | 0.85 | 25 |  |  |  |  | 
Nc1ccc2c(c1)C(=O)c1nc3ccccc3c(=O)n1-2 | 5 | 5 | 5 | 2 | 3 | 5 | 4.8 | 0.7 |  |  |  |  | 
O=C(CO/N=C1\c2ccccc2-n2c1nc1ccccc1c2=O)Nc1ccccn1 | 8 | 95 | 25 | 10 | 20 | 52 | > 100 | 8.5 |  |  |  |  | 
O=c1c2ccccc2nc2n1-c1ccccc1/C2=N\OCCCN1CCCC1 | 5 | 6 | 4 | 5 | 7 | 4 | 4.5 | 6 |  |  |  |  | 
CC(=O)Nc1ccc2c(c1)C(=O)c1nc3ccccc3c(=O)n1-2 | 0.4 | 10 | 5 | 0.5 | 0.4 | 20 | 30 | 20 |  |  |  |  | 
Nc1ccc2nc3n(c(=O)c2c1)-c1ccccc1C3=O | 40 | 60 | 60 | 60 | 80 | 40 | 60 | 70 |  |  |  |  | 
CN(C)CCO/N=C1\c2ccccc2-n2c1nc1ccccc1c2=O | 0.4 | 2 | 0.7 | 2.5 | 0.6 | 2 | 0.75 | 0.8 | 14 | 14 | 75 |  | 
CC1(O)c2ccccc2-n2c1nc1ccccc1c2=O (stereo not given) | > 100 | > 100 | > 100 | > 100 | > 100 | > 100 | > 100 | > 100 |  |  |  |  | 
O=c1c2ccccc2nc2n1-c1ccc(Br)cc1/C2=N\OCCN1CCCCC1 | 0.3 | 2.5 | 2 | 0.55 | 2 | 1 | 3 | 0.095 |  |  |  |  | 
COc1cc2nc3n(c(=O)c2cc1OC)-c1ccccc1C3=O | > 100 | > 100 | > 100 | > 100 | > 100 | > 100 | > 100 | > 100 |  |  |  |  | 
CN(C)CCCO/N=C1\c2cc([N+](=O)[O-])ccc2-n2c1nc1ccccc1c2=O | 4 | 0.4 | 0.4 | 2 | 0.09 | 0.6 | 0.5 | 2.5 | 76 |  |  | 23 | 14
CCCCC1(O)c2ccccc2-n2c1nc1ccccc1c2=O (stereo not given) | > 100 | > 100 | > 100 | > 100 | > 100 | > 100 | > 100 | > 100 |  |  |  |  | 
O=C(/C=C/c1ccccc1)O/N=C1\c2ccccc2-n2c1nc1ccccc1c2=O | 7.5 | 90 | 45 | > 100 | 10 | 6 | 60 | 20 |  |  |  |  | 
O=c1c2ccccc2nc2n1-c1ccccc1/C2=N\OCCO | 0.01 | 30 | 7 | 3 | 40 | 20 | 20 | 1 |  |  |  |  | 
CCC(=O)Nc1ccc2c(c1)C(=O)c1nc3ccccc3c(=O)n1-2 | 20 | 10 | 18 | 10 | 7 | 8 | 22 | > 100 |  |  |  |  | 
